Test results: patent US10905687B2, “Substituted piperazines as ROR-gamma modulators” (ESCALIER BIOSCIENCES B.V., priority 2016, dated 2021)
Where a name gives a salt, the structure may show the parent alone.

Experiments:
RORγt = RORγt (Homo sapiens (Human), UniProt P51449); experiment: Gal4 ligand binding assay (RORγt Gal fusion assay); assay type: cell-based; conditions: RORγt inverse agonists in RORγt Gal fusion assay
Experimental: Human RORγ ligand binding assay was performed in 96-well format. The N-terminal DNA binding domains (DBD) of the native RORγ and RORγt receptors have been substituted with that of the yeast GAL4-DBD and RORγ is expressed constitutively in the cell line. Both agonist and inverse agonist activity can be detected. 10 mM compound stocks were diluted serially 1:3 with DMSO and further diluted with provided media to generate 10 titration points from 60 μM to 3 nM. These treatment conditions were added to the plates as 2× media in 100 μL volume. Each plate includes a positive control with 10 titration points as well as 6 negative control wells with vehicle only. Reporter cells were rapidly thawed and added to the plates in 100 μL volume. The plates were incubated for 24 hrs in a 37° C. humidified 5% CO2 incubator. Media was removed before the addition of room temperature Detection Substrate. After 5 minute incubation, the luminescence was quantified on a luminescence plate reader.

IMQ-induced psoriasis = conditions: topical pre-treatment daily for 5 days, 4 hours before IMQ; Compound A at 0.3, 1, 3%
Experimental: Compounds of Formula (I), (Ia), or (Ib) were tested in the imiquimod (IMQ) induced psoriasis model in mice to determine their in vivo efficacy as topical agents. Female Balb/c mice of age 8-10 weeks were allowed to acclimatize for at least seven days prior to experiment initiation. During this period, the mice were observed daily for clinical signs. Animals were randomly assigned to studies group on Day zero (DO) before anaesthetization and back hair was completely removed by using a depilatory cream. One group of animals served as a naïve control (untreated). […] The severity of psoriasis was monitored and graded daily using a modified human scoring system, the Psoriasis Area and Severity Index (PASI), which consists of measures for ear and skin erythema, scaling and thickness. At the end of the study period, 24 hours after the final dosing, all animals were humanely sacrificed, and blind histopathological scoring was performed by pathologist on H&E stained tissue sections of the ear and back.

Sequence of RORγt (P51449 269-508): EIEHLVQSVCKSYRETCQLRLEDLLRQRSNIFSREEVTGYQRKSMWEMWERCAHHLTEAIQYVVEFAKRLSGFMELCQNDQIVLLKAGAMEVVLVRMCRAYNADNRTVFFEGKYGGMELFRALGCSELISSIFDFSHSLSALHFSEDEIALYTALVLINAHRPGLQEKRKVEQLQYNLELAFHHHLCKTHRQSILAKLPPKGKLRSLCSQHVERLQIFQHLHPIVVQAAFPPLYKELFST

SMILES	IC50 (RORγt)	other results
O=C(O)CC1CN(Cc2ccncc2)CCN1Cc1ccc(-c2ccc(C(O)(C(F)(F)F)C(F)(F)F)cc2)cc1 (centres unmarked) [Compound 13, 2-(1-((4′-(1,1,1,3,3,3-hexafluoro-2-hydroxypropan-2-yl)-[1,1′-biphenyl]-4-yl)methyl)-4-(pyridin-4-ylmethyl)piperazin-2-yl)acetic acid]	1 to 10 µM	–
C[C@H]1C[C@H]2[C@@H]3CCC4=CC(=O)C=C[C@]4(C)[C@@]3(F)[C@@H](O)C[C@]2(C)[C@@]1(O)C(=O)CCl [clobetasol]	–	ear and back skin thickness (IMQ-induced psoriasis): significantly decreased; histopathology scoring (IMQ-induced psoriasis): significantly decreased; psoriasis score (IMQ-induced psoriasis): significantly decreased
CC(C)NC(=O)C1CN(Cc2ccc(-c3ccc(C(O)(C(F)(F)F)C(F)(F)F)cc3)cc2)CCN1Cc1ccncc1 (centres unmarked) [Compound 28, 4-((4′-(1,1,1,3,3,3-hexafluoro-2-hydroxypropan-2-yl)-[1,1′-biphenyl]-4-yl)methyl)-N-isopropyl-1-(pyridin-4-ylmethyl)piperazine-2-car oxamide]	1 to 10 µM	–
Cc1cc(CN2CCN(Cc3ccncc3)[C@@H](CC(=O)O)C2)ccc1-c1ccc(C(O)(C(F)(F)F)C(F)(F)F)cc1 [Compound 50, (S)-2-(4-((4′-(1,1,1,3,3,3-hexafluoro-2-hydroxypropan-2-yl)-2-methyl-[1,1′-biphenyl]-4-yl)methyl)-1-(pyridin-4-ylmethyl)piperazin-2-yl)acetic acid]	1 to 10 µM	–

Further lines, with some results ahead:

IC50 (RORγt)	SMILES	other results
1 to 10 µM	O=C(O)C1CN(Cc2ccncc2)CCN1Cc1ccc(-c2ccc(C(O)(C(F)(F)F)C(F)(F)F)cc2)cc1 (centres unmarked) [Compound 12, 1-((4′-(1,1,1,3,3,3-hexafluoro-2-hydroxypropan-2-yl)-[1,1′-biphenyl]-4-yl)methyl)-4-(pyridin-4-ylmethyl)piperazine-2-carboxylic acid]	–
1 to 10 µM	NCCOC(=O)CC1CN(Cc2ccc(-c3ccc(C(O)(C(F)(F)F)C(F)(F)F)cc3)cc2)CCN1Cc1ccncc1 (centres unmarked) [Compound 33, 2-aminoethyl 2-(4-((4′-(1,1,1,3,3,3-hexafluoro-2-hydroxypropan-2-yl)-[1,1′-biphenyl]-4-yl)methyl)-1-(pyridin-4-ylmethyl)piperazin-2-yl)acetate hydrochloride]	–
